Active and inactive are the calls of the source. The rule behind the calls is not given here.
What was measured:
[1] = Half life in mouse plasma; type: ADME, cell-free
[2] = target: Cathepsin D (Homo sapiens) (UniProt P07339); assay: Inhibition of cathepsin D (unknown origin) at 10 uM
[3] = target: Caspase-10 (Homo sapiens) (UniProt Q92851); assay: Inhibition of caspase-10 (unknown origin) at 10 uM
[4] = target: Prothrombin (Homo sapiens) (UniProt P00734); assay: Inhibition of thrombin (unknown origin) at 100 nM relative to control
Trypsin (Homo sapiens) [5] = target: T1, Trypsin (Homo sapiens) (UniProt P07477+P07478+P35030); assay: Inhibition of trypsin (unknown origin) at 1 uM relative to control; type: protein assay
[6] = target: Prothrombin (Homo sapiens) (UniProt P00734); assay: Inhibition of thrombin (unknown origin) at 10 uM relative to control
[7] = target: T2, Cathepsin L2 (Homo sapiens) (UniProt O60911); assay: Inhibition of cathepsin V (unknown origin) at 1 uM relative to control
T2 sequence (whole entry): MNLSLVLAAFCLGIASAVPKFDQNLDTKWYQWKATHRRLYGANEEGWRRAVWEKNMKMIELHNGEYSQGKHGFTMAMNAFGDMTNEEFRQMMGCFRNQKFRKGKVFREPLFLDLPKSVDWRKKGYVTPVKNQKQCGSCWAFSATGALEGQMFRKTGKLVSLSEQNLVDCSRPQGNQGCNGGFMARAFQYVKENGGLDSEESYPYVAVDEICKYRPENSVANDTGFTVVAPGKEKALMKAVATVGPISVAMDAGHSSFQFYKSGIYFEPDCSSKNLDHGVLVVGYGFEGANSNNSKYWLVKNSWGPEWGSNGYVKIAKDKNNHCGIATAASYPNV

[8] = target: Kallikrein-1 (Homo sapiens) (UniProt P06870); assay: Inhibition of KLK1 (unknown origin) at 10 uM
[9] = target: Tryptase beta-2 (Homo sapiens) (UniProt P20231); assay: Inhibition of tryptase b2 (unknown origin) at 1 uM relative to control
[10] = target: T3, Calpain1/2 (Homo sapiens) (UniProt P17655+P07384); assay: Inhibition of calpain (unknown origin) at 1 uM relative to control; type: protein assay
Caspase-7 (Homo sapiens) = Caspase-7 (Homo sapiens) (UniProt P55210); assay: Inhibition of caspase-7 (unknown origin) at 10 uM
[11] = target: T4, Mucosa-associated lymphoid tissue lymphoma translocation protein 1 (Homo sapiens) (UniProt Q9UDY8); assay: Inhibition of MALT1 (unknown origin) expressed in PMA/IO-stimulated human Raji Glosensor cells by reporter gene assay; type: cell-based
T4 sequence (whole entry): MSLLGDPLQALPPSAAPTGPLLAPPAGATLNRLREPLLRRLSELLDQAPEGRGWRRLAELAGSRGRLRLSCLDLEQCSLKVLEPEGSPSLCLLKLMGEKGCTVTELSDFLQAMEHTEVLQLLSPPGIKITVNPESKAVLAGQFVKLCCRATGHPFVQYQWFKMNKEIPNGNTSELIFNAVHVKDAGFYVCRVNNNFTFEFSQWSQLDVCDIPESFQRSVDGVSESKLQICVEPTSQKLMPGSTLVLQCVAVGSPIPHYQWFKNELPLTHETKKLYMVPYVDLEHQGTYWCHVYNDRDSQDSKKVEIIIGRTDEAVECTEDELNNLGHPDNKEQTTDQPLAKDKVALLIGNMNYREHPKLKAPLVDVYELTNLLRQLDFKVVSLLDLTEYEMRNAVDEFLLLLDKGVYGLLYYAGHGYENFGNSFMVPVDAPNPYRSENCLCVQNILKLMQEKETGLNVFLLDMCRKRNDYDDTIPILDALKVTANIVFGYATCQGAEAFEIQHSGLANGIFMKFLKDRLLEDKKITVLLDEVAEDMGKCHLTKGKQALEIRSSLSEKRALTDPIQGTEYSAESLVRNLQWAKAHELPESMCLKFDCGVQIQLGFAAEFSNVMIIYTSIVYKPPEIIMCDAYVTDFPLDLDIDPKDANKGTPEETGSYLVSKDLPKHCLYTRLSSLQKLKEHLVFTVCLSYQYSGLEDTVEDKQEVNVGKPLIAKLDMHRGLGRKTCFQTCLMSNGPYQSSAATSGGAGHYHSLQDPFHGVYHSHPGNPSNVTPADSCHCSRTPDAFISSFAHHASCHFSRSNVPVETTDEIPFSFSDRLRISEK

[12] = Half life in mouse microsomes; type: ADME, Microsome
[13] = target: T3, Calpain1/2 (Homo sapiens); assay: Inhibition of calpain (unknown origin) at 10 uM relative to control; type: protein assay
OCI-Ly1 = assay: Antitumor activity against human OCI-LY1 cells xenografted in ip dosed NOD.CB17-Prkdc SCID mouse assessed as effect on tumor growth administered twice daily for 16 to 24 days measured 4 hrs post-last dose; type: functional, organism-based
[14] = Drug uptake in iv dosed mouse plasma by LC-MS/MS analysis; type: ADME, organism-based; details: in vivo
Caspase-1 (Homo sapiens) = Caspase-1 (Homo sapiens) (UniProt P29466); assay: Inhibition of caspase-1 (unknown origin) at 10 uM
[15] = target: Tryptase beta-2 (Homo sapiens) (UniProt P20231); assay: Inhibition of tryptase b2 (unknown origin) at 10 uM relative to control
[16] = target: T3, Calpain1/2 (Homo sapiens); assay: Inhibition of calpain (unknown origin) at 100 nM relative to control; type: protein assay
[17] = target: Urokinase-type plasminogen activator (Homo sapiens) (UniProt P00749); assay: Inhibition of urokinase (unknown origin) at 10 uM
[18] = Drug uptake in ip dosed mouse plasma by LC-MS/MS analysis; type: ADME, organism-based; details: in vivo
Trypsin (Homo sapiens) [19] = target: T1, Trypsin (Homo sapiens); assay: Inhibition of trypsin (unknown origin) at 100 nM relative to control; type: protein assay
[20] = target: Tryptase beta-2 (Homo sapiens) (UniProt P20231); assay: Inhibition of tryptase b2 (unknown origin) at 100 nM relative to control
[21] = target: T2, Cathepsin L2 (Homo sapiens); assay: Inhibition of cathepsin V (unknown origin) at 10 uM relative to control
[22] = target: T5, Cathepsin K (Homo sapiens) (UniProt P43235); assay: Inhibition of cathepsin K (unknown origin) at 100 nM relative to control
T5 sequence (whole entry): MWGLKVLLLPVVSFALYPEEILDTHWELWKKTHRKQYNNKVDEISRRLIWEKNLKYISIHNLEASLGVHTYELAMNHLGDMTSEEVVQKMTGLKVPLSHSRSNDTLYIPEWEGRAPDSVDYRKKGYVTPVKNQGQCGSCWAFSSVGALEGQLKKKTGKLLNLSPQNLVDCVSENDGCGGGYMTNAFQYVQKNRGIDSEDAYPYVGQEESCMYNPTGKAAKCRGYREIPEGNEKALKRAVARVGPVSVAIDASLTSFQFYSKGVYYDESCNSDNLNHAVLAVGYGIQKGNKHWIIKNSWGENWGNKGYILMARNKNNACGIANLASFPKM

OCI-Ly3 [23] = assay: Antitumor activity against human OCI-LY3 cells xenografted in ip dosed NOD Cg-rkdc SCID Il2rgtm1Wjl/SzJ mouse assessed as effect on tumor growth administered twice daily for 16 to 24 days measured 4 hrs post-last dose; type: functional, organism-based
OCI-Ly3 [24] = assay: Antiproliferative activity against human OCI-LY3 cells assessed as growth inhibition treated every 48 hrs measured after 96 hrs by CellTiter-Glo assay; type: functional
Caspase-2 (Homo sapiens) = Caspase-2 (Homo sapiens) (UniProt P42575); assay: Inhibition of caspase-2 (unknown origin) at 10 uM
Caspase-2 (Homo sapiens), sequence (P42575 170-325 limits assumed): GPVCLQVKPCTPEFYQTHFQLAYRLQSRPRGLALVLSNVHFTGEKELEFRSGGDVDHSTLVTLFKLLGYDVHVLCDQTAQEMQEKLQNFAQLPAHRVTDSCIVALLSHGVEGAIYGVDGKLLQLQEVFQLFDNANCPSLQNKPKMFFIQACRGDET
Caspase-2 (Homo sapiens), sequence (P42575 334-452 limits assumed): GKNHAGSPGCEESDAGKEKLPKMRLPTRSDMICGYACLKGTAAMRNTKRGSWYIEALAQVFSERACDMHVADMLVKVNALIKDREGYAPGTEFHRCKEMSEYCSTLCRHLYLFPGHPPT

T3 sequence (P07384 whole entry, looked up): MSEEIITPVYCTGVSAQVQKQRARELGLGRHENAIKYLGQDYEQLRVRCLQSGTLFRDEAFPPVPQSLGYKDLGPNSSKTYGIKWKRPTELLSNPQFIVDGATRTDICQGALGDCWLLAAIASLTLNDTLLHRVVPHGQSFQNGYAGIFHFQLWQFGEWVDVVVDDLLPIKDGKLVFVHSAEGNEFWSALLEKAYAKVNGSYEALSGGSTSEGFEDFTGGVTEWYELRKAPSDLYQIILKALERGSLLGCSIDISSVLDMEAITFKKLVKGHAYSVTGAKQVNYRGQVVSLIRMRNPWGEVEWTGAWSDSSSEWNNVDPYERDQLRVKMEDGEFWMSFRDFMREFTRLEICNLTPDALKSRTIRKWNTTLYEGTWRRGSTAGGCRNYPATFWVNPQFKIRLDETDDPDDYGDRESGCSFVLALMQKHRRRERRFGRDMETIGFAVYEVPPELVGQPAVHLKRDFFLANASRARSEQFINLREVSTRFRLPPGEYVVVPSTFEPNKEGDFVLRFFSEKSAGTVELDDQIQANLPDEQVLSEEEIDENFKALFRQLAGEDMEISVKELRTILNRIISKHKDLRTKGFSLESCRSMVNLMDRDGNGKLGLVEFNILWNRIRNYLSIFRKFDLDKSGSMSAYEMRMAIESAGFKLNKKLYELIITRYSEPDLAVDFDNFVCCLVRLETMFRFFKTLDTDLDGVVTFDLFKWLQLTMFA
T3 sequence (P17655 whole entry, looked up): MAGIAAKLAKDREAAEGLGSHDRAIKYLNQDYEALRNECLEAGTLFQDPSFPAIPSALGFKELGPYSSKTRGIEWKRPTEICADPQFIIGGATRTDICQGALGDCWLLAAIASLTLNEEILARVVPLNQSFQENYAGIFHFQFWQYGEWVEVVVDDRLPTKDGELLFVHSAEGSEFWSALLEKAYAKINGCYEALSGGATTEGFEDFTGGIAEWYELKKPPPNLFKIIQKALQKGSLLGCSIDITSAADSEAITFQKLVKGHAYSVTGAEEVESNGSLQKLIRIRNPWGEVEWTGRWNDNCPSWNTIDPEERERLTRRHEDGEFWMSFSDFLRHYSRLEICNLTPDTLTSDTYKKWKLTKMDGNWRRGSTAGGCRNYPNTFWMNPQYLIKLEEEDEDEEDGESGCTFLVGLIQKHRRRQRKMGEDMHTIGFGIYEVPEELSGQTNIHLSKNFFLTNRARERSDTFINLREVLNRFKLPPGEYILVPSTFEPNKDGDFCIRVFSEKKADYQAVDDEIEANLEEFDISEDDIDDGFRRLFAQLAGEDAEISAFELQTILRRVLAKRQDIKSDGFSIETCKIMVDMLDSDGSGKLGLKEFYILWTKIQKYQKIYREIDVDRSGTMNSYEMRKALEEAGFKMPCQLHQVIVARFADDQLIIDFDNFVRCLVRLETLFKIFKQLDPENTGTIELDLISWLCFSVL
Tryptase beta-2 (Homo sapiens), sequence (P20231 whole entry): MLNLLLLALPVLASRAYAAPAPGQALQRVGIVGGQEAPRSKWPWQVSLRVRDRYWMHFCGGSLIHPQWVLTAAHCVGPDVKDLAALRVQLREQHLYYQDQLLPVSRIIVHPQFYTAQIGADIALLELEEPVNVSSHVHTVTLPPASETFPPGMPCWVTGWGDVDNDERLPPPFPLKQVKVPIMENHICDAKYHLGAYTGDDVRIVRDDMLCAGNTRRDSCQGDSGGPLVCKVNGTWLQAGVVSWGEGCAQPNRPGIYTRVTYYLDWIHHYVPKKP
Caspase-1 (Homo sapiens), sequence (P29466 120-297 limits assumed): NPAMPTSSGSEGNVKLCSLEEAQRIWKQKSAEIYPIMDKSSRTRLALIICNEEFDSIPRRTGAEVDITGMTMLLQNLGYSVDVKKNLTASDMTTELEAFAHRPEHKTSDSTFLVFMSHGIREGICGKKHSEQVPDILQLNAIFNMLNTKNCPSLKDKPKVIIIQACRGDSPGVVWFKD
Caspase-1 (Homo sapiens), sequence (P29466 317-404 limits assumed): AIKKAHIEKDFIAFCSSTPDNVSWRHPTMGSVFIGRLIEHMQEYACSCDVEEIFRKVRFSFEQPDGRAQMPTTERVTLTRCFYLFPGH
Caspase-7 (Homo sapiens), sequence (P55210 24-198 limits assumed): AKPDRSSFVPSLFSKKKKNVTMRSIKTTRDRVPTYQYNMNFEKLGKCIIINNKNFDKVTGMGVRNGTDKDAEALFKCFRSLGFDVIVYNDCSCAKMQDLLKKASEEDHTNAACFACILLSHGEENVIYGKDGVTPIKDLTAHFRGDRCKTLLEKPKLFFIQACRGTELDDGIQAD
Caspase-7 (Homo sapiens), sequence (P55210 207-303 limits assumed): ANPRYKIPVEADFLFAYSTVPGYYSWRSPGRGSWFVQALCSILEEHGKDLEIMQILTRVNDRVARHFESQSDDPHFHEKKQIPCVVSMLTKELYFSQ
Caspase-10 (Homo sapiens), sequence (Q92851 220-415 limits assumed): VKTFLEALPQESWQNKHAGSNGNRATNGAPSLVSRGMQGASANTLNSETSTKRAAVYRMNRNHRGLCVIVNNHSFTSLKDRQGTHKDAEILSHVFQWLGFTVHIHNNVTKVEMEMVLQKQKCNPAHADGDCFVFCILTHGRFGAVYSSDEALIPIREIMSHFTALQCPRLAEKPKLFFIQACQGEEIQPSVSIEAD
Caspase-10 (Homo sapiens), sequence (Q92851 416-521 limits assumed): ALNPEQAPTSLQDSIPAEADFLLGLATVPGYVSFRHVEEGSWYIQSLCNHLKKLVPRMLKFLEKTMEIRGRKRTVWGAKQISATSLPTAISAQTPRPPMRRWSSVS
Kallikrein-1 (Homo sapiens), sequence (P06870 25-262 limits assumed): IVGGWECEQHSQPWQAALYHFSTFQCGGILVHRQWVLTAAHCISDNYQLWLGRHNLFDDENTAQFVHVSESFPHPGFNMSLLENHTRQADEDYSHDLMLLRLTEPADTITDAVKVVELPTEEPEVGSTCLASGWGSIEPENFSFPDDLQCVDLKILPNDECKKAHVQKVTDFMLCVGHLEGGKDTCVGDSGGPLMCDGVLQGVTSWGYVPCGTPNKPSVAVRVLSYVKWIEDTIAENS
Cathepsin D (Homo sapiens), sequence (P07339 65-162 limits assumed): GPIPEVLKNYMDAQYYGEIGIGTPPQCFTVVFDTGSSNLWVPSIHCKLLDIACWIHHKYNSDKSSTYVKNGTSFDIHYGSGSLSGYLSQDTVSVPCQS
Cathepsin D (Homo sapiens), sequence (P07339 169-412 limits assumed): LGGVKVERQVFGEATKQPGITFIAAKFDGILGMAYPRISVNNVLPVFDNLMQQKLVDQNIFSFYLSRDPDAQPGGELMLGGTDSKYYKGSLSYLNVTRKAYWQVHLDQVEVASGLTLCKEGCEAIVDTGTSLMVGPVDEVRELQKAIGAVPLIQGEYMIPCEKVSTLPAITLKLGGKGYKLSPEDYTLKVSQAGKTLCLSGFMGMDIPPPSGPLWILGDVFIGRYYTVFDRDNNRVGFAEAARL

t1/2 [1]: 4.3 h | inhibition [2]: Active | inhibition [3]: Active | inhibition [4]: 14.8% | inhibition (Trypsin (Homo sapiens) [5]): 98% | inhibition [6]: 83% | inhibition [7]: 56.9% | inhibition [8]: Active | inhibition [9]: 14% | inhibition [10]: 25.6% | inhibition (Caspase-7 (Homo sapiens)): Active | IC50 [11]: 70 to 71 nM | t1/2 [12]: > 2 h | inhibition [13]: 105% | Drug uptake [14]: Active | inhibition (Caspase-1 (Homo sapiens)): Active | inhibition [15]: 79% | inhibition [16]: 23.6% | inhibition [17]: Active | Drug uptake [18]: Active | inhibition (Trypsin (Homo sapiens) [19]): 92.9% | inhibition [20]: 6.1% | inhibition [21]: 89.4% | inhibition [22]: 63.2% | GI50 (OCI-Ly3 [24]): 130 nM | inhibition (Caspase-2 (Homo sapiens)): Active
SMILES: CC(C)[C@H](NC(=O)c1ccc(Br)cc1)C(=O)N1CCC[C@H]1C(=O)N[C@@H](CCCNC(=N)N)C(=O)CF
Activity (OCI-Ly1): Active | Activity (OCI-Ly3 [23]): Active
